ChEMBL document CHEMBL3085689, “Targeting the hydrophobic region of Hsp90's ATP binding pocket with novel 1,3,5-triazines” (Bioorg Med Chem Lett, 2013)
Calls of active or inactive are those of the source. The calls are words filed in the database; no cut-off is given here.

Columns and labels:
NCI-H1975 = assay: Antiproliferative activity against gefitinib-resistant human NCI-H1975 cells after 72 hrs by MTS assay; assay type: functional, cell-based
[1] = biological target: Heat shock protein HSP 90-beta (Homo sapiens) (UniProt P08238); assay: Inhibition of HSP90 in human H1975 cells assessed as reduction of Her2 level at 50 to 100 uM after 24 hrs by densitometric analysis; assay type: cell-based
Chain of Heat shock protein HSP 90-beta (Homo sapiens) (P08238 whole entry, the tested form may be a part): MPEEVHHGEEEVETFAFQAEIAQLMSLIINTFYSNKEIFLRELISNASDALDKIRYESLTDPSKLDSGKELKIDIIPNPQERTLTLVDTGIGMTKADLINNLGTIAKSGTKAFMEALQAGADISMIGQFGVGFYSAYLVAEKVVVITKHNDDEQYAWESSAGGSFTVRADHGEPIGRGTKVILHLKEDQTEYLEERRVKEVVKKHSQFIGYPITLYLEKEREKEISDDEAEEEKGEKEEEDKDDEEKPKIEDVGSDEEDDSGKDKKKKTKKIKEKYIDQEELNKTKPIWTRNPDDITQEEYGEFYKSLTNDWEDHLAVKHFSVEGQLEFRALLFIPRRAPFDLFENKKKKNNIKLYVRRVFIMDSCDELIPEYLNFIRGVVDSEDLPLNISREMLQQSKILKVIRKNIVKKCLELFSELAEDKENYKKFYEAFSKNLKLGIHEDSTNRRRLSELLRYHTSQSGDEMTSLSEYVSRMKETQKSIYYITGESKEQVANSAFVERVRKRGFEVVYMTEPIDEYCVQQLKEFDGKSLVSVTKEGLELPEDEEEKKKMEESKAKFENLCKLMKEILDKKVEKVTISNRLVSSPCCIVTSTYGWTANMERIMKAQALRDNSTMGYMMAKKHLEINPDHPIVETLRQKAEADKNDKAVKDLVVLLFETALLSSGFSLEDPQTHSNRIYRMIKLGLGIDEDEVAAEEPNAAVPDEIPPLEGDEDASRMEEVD

[2] = biological target: Heat shock protein HSP 90-alpha (Homo sapiens, UniProt P07900); assay: Inhibition of recombinant human Hsp90alpha ATP-binding pocket of N-terminal domain after 4 hrs by fluorescence polarization assay
[3] = biological target: Heat shock protein HSP 90-beta (Homo sapiens) (UniProt P08238); assay: Inhibition of HSP90 in human H1975 cells assessed as upregulation of Hsp70 after 24 hrs by densitometric analysis; assay type: cell-based
[4] = biological target: Heat shock protein HSP 90-beta (Homo sapiens) (UniProt P08238); assay: Inhibition of HSP90 in human H1975 cells assessed as reduction of Akt level after 24 hrs by densitometric analysis; assay type: cell-based
[5] = biological target: Heat shock protein HSP 90-beta (Homo sapiens) (UniProt P08238); assay: Inhibition of HSP90 in human H1975 cells assessed as reduction of Met level after 24 hrs by densitometric analysis; assay type: cell-based
[6] = biological target: Heat shock protein HSP 90-beta (Homo sapiens) (UniProt P08238); assay: Inhibition of HSP90 in human H1975 cells assessed as reduction of Her2 level after 24 hrs by densitometric analysis; assay type: cell-based
[7] = biological target: Heat shock protein HSP 90-beta (Homo sapiens) (UniProt P08238); assay: Inhibition of HSP90 in human H1975 cells assessed as upregulation of Hsp70 at 100 uM after 24 hrs by Western blotting analysis; assay type: cell-based
[8] = biological target: Heat shock protein HSP 90-beta (Homo sapiens) (UniProt P08238); assay: Inhibition of HSP90 in human H1975 cells assessed as reduction of Akt level at 100 uM after 24 hrs by Western blotting analysis; assay type: cell-based
[9] = biological target: Heat shock protein HSP 90-beta (Homo sapiens) (UniProt P08238); assay: Inhibition of HSP90 in human H1975 cells assessed as reduction of Met level at 100 uM after 24 hrs by Western blotting analysis; assay type: cell-based
[10] = biological target: Heat shock protein HSP 90-beta (Homo sapiens) (UniProt P08238); assay: Inhibition of HSP90 in human H1975 cells assessed as reduction of Her2 level at 100 uM after 24 hrs by Western blotting analysis; assay type: cell-based

Structure (SMILES) | Activity (NCI-H1975) | Activity [7] | Activity [9] | Activity [10] | other results
Nc1nc(Cl)nc(Nc2ccc(O)cc2)n1 | Dose-dependent effect |  |  |  | 
Nc1nc(Cl)nc(Nc2ccccc2Cl)n1 | Dose-dependent effect |  |  |  | 
Nc1nc(Cl)nc(Nc2ccccc2)n1 | Dose-dependent effect |  |  |  | 
Cc1cccc(C)c1Oc1nc(N)nc(Cl)n1 | Dose-dependent effect | Active | Active | Active | Activity [1]: Active; IC50 [2]: 5 µM; Ki [2]: 2.8 µM; Activity [3]: Dose-dependent effect; Activity [4]: Dose-dependent effect; Activity [5]: Dose-dependent effect; Activity [6]: Dose-dependent effect; Activity [8]: Active
COc1ccc(Oc2nc(N)nc(Cl)n2)cc1 | Dose-dependent effect | Active | Active | Active | Activity [8]: Active
COc1ccc(COc2nc(N)nc(Cl)n2)cc1 | Dose-dependent effect | inactive | inactive | inactive | 
COc1cc(COc2nc(N)nc(Cl)n2)cc(OC)c1OC | Dose-dependent effect |  |  |  | 
